Measurements published in patent publication US20260242352A1, “INHIBITION OF SHIP1 AS A THERAPEUTIC STRATEGY FOR THE TREATMENT OF ALZHEIMER'S DISEASE” (The Trustees of Indiana University, priority 2022, published 2026).

Tests used:
[1] = target: T1, HiBit-labeled full length SHIP1 protein (Homo sapiens, UniProt Q92835); experiment: Cellular thermal shift assay (SplitLuc CETSA), thermal shift format; format: cell-based; parameters: key: Y = ΔTm difference of 40 μM compound treated cells from control is Tm > 3SD; N: otherwise negative; conditions: 40 μM compound for 60 min, HMC3/HiBit-INPP5D cells, 38-52° C. gradient; target engagement positive/negative
T1 construct: thermal stability of a HiBit-labeled full length SHIP1 protein in intact cells; expressed in transfected cells; host or cells: HMC3 (stably transfected)
T1 sequence (Q92835 1-1189): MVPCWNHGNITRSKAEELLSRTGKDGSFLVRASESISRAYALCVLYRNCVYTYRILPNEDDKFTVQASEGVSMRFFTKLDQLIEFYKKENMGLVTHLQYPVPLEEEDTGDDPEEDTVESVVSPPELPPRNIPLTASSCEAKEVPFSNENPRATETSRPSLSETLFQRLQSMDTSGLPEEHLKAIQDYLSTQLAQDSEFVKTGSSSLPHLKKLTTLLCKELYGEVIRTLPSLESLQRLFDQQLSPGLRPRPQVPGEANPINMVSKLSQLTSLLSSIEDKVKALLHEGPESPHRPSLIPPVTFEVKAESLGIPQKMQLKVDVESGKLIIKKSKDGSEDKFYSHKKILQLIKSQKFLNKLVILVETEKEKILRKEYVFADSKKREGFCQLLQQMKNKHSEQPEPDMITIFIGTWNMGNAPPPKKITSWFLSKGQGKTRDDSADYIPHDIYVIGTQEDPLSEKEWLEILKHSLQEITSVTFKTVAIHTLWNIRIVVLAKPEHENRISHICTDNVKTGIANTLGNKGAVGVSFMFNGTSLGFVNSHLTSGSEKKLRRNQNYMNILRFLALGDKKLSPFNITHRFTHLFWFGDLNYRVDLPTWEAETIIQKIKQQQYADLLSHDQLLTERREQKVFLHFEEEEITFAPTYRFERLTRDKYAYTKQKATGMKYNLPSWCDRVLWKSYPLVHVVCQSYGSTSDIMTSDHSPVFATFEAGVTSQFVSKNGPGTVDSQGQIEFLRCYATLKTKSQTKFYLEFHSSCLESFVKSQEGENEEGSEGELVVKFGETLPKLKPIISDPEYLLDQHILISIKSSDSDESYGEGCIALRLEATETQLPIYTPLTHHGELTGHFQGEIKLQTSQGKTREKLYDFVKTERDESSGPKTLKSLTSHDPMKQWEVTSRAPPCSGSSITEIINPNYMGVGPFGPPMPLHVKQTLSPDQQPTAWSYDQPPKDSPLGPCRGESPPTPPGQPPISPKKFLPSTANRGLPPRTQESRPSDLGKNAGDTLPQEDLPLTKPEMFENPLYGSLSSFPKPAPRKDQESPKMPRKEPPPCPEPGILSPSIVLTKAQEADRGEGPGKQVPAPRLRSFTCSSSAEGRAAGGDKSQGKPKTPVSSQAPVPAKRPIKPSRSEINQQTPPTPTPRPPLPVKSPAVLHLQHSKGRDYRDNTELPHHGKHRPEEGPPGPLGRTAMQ
Procedure: Cellular thermal shift assay (CETSA). […] This assay was run in the following two formats with HMC3/HiBit-INPP5D stably transfected cells.
1. Thermal shift: cells were treated with 40 μM compound for 60 min, then heated with a temperature gradient covering 38-52° C. for 3 min before luminescence detection. Mean and standard deviation of control Tm were determined to generate a “Mean+3SD” ΔTm, which was used as threshold to determine a significant ΔTm of compound from control. When the difference of ΔTm of compound treated cells from control Tm>3SD, the compound was considered positive for target engagement, otherwise negative. SD=average standard deviation.
See Martinez et al. (2018) Sci Rep 8: p. 9472; Oh-Hashi et al. (2017) Biochem Biophys Rep 12: pp. 40-45. This assay was run in the following two formats with HMC3/HiBit-INPP5D stably transfected cells.
Thermal shift: cells were treated with 40 μM compound for 60 min, then heated with a temperature gradient covering 38-52° C. for 3 min before luminescence detection. Mean and standard deviation of control Tm were determined to generate a “Mean+3SD” ΔTm, which was used as threshold to determine a significant ΔTm of compound from control. When the difference of ΔTm of compound treated cells from control Tm>3SD, the compound was considered positive for target engagement, otherwise negative. SD=average standard deviation.

[2] = tested on: phosphorylated and total AKT (pAKT/tAKT) in THP1 cells; experiment: PhosphoAKT assay; format: cell-based; conditions: Homo sapiens, THP-1, 1.5 h, 90 minutes, pAKT (S473)/tAKT ratio, (n) in cell
Procedure: (§1) PhosphoAKT assay. THP1 cells were treated with inhibitors for 90 minutes and then the levels of phosphorylated and total AKT (pAKT/tAKT) were detected using the Perkin Elmer Alpha SureFire Ultra Multiplex PhosphoAKT (S473) kit according to the manufacturer's directions. IC50 values were calculated by fitting the ratio of pATK/tAKT versus inhibitor concentration.
as §1, with “THP1” for “PhosphoAKT assay. THP1”

| CETSA SP [1] | IC50 [2] [µM] | SMILES |
| --- | --- | --- |
| N |  | CC(C)(C)OC(=O)N1CCC(n2cc(-c3cncc(OCc4ccccc4Cl)c3)cn2)CC1 [Compound 1, tert-butyl 4-(4-{5-[(2-chlorophenyl)methoxy]pyridin-3-yl}-1H-pyrazol-1-yl)piperidine-1-carboxylate] |
| N |  | CC(C)(C)OC(=O)N1CCC(n2cc(-c3cncc(OCc4ccccc4F)c3)cn2)CC1 [Compound 2, tert-butyl 4-(4-(5-((2-fluorobenzyl)oxy)pyridin-3-yl)-1H-pyrazol-1-yl)piperidine-1-carboxylate] |
| N | 31.2 | Cc1ccccc1COc1cncc(-c2cnn(C3CCN(C(=O)OC(C)(C)C)CC3)c2)c1 [Compound 3, tert-butyl 4-(4-(5-((2-methylbenzyl)oxy)pyridin-3-yl)-1H-pyrazol-1-yl)piperidine-1-carboxylate] |
| N | 31.6 | CC(C)(C)OC(=O)N1CCC(n2cc(-c3cncc(OCc4ccccc4)c3)cn2)CC1 [Compound 4, tert-butyl 4-(4-(5-(benzyloxy)pyridin-3-yl)-1H-pyrazol-1-yl)piperidine-1-carboxylate] |
| N | 17.9 | CC(C)(C)CCN1CCC(n2cc(-c3cncc(OCc4ccccc4Cl)c3)cn2)CC1 [Compound 15, 3-((2-chlorobenzyl)oxy)-5-(1-(1-(3,3-dimethylbutyl)piperidin-4-yl)-1H-pyrazol-4-yl)pyridine] |
| N | > 60 | CC(C)(C)CC(=O)N1CCC(n2cc(-c3cncc(OCc4ccccc4Cl)c3)cn2)CC1 [Compound 16, 1-(4-(4-(5-((2-chlorobenzyl)oxy)pyridin-3-yl)-1H-pyrazol-1-yl)piperidin-1-yl)-3,3-dimethylbutan-1-one] |

The remaining lines, values behind:

| SMILES | CETSA SP [1] | IC50 [2] [µM] |
| --- | --- | --- |
| CC(C)(C)OC(=O)N1CCC(n2cc(-c3cncc(OCc4c(Cl)cccc4Cl)c3)cn2)CC1 [Compound 5, tert-butyl 4-(4-(5-((2,6-dichlorobenzyl)oxy)pyridin-3-yl)-1H-pyrazol-1-yl)piperidine-1-carboxylate] | N |  |
| CC(C)(C)OC(=O)N1CCC(n2cc(-c3cncc(OCc4ccc(Br)cc4)c3)cn2)CC1 [Compound 7, tert-butyl 4-(4-(5-((4-bromobenzyl)oxy)pyridin-3-yl)-1H-pyrazol-1-yl)piperidine-1-carboxylate] | Y* |  |
| Cl.Clc1ccccc1COc1cncc(-c2cnn(C3CCNCC3)c2)c1 [Compound 9, 3-((2-chlorobenzyl)oxy)-5-(1-(piperidin-4-yl)-1H-pyrazol-4-yl)pyridine hydrochloride] | Y |  |
| Cl.Clc1ccc(COc2cncc(-c3cnn(C4CCNCC4)c3)c2)c(Cl)c1 [Compound 10, 3-((2,4-dichlorobenzyl)oxy)-5-(1-(piperidin-4-yl)-1H-pyrazol-4-yl)pyridine hydrochloride] | Y | 6.52 |
| C[C@H](Oc1cncc(-c2cnn(C3CCNCC3)c2)c1)c1ccccc1Cl [Compound 21, (S)-3-(1-(2-chlorophenyl)ethoxy)-5-(1-(piperidin-4-yl)-1H-pyrazol-4-yl)pyridine] | Y |  |
| C[C@@H](Oc1cncc(-c2cnn(C3CCNCC3)c2)c1)c1ccccc1Cl [Compound 22, (R)-3-(1-(2-chlorophenyl)ethoxy)-5-(1-(piperidin-4-yl)-1H-pyrazol-4-yl)pyridine] | Y |  |
| C[C@@H](Oc1cncc(-c2cnn(C3CCNCC3)c2)c1)c1ccc(Cl)cc1 [Compound 23, (R)-3-(1-(4-chlorophenyl)ethoxy)-5-(1-(piperidin-4-yl)-1H-pyrazol-4-yl)pyridine] | Y | 4.06 |
| Cc1ccccc1COc1cncc(-c2cnn(C3CCNCC3)c2)c1 [Compound 25, 3-[(2-Methylphenyl)methoxy]-5-[1-(piperidin-4-yl)-1H-pyrazol-4-yl]pyridine] | Y | 58.4 |
| Clc1ccccc1COc1cncc(-c2ccn(C3CCNCC3)n2)c1 [Compound 26, 3-((2-chlorobenzyl)oxy)-5-(1-(piperidin-4-yl)-1H-pyrazol-3-yl)pyridine] | Y | 7.72 |
| Clc1ccccc1COc1cncc(-n2ccc(C3CCNCC3)n2)c1 [Compound 27, 3-((2-chlorobenzyl)oxy)-5-(3-(piperidin-4-yl)-1H-pyrazol-1-yl)pyridine] | Y | > 60 |
| Clc1ccccc1COc1cncc(-n2cc(C3CCNCC3)cn2)c1 [Compound 28, 3-((2-chlorobenzyl)oxy)-5-(4-(piperidin-4-yl)-1H-pyrazol-1-yl)pyridine] | Y | 5.57 |
| Clc1ccccc1COc1cccc(-c2cnn(C3CCNCC3)c2)c1 [Compound 29, 4-(4-(3-((2-chlorobenzyl)oxy)phenyl)-1H-pyrazol-1-yl)piperidine] | N | 6.55 |
